Key:
CK1alpha = CK1alpha (Homo sapiens (Human), UniProt P48729); experiment: CK1alpha degradation in cells treated with compound (FIG. 1A); assay type: cell-based; conditions: concentrations up to 30 µM
GSPT1 [1] = target: T1, GSPT1 (Homo sapiens (Human), UniProt P15170+Q96SW2); experiment: GSPT1 degradation in high N-Myc NSCLC cells (FIG. 2); assay type: cell-based; conditions: for DC50: six hours of treatment
Target sequence in this assay (P15170 whole entry, looked up): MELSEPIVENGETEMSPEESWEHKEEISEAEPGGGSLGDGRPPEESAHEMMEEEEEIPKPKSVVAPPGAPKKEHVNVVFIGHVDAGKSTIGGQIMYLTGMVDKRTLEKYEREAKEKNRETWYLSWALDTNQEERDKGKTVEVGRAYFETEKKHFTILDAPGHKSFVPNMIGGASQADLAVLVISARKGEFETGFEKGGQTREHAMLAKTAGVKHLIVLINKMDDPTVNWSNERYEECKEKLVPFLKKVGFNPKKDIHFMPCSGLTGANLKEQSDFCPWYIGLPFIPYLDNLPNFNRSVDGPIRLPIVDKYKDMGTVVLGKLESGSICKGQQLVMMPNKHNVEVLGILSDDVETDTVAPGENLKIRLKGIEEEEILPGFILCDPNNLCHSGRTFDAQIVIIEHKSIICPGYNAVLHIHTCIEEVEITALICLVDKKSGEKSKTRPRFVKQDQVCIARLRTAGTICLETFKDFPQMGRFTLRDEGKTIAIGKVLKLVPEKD
Target sequence in this assay (Q96SW2 whole entry, looked up): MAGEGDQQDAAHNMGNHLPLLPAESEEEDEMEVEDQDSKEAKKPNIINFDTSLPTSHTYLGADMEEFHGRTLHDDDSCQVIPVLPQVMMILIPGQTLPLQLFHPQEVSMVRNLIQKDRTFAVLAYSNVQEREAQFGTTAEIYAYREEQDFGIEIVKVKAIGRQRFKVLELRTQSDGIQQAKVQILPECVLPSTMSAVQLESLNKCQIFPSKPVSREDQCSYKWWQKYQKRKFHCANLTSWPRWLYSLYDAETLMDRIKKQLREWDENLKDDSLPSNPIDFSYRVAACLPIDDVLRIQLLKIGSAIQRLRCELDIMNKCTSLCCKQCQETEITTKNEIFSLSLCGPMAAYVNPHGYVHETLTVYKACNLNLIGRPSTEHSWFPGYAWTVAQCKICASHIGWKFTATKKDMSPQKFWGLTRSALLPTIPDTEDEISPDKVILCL
Target sequence in this assay (Q16531 whole entry partner, looked up): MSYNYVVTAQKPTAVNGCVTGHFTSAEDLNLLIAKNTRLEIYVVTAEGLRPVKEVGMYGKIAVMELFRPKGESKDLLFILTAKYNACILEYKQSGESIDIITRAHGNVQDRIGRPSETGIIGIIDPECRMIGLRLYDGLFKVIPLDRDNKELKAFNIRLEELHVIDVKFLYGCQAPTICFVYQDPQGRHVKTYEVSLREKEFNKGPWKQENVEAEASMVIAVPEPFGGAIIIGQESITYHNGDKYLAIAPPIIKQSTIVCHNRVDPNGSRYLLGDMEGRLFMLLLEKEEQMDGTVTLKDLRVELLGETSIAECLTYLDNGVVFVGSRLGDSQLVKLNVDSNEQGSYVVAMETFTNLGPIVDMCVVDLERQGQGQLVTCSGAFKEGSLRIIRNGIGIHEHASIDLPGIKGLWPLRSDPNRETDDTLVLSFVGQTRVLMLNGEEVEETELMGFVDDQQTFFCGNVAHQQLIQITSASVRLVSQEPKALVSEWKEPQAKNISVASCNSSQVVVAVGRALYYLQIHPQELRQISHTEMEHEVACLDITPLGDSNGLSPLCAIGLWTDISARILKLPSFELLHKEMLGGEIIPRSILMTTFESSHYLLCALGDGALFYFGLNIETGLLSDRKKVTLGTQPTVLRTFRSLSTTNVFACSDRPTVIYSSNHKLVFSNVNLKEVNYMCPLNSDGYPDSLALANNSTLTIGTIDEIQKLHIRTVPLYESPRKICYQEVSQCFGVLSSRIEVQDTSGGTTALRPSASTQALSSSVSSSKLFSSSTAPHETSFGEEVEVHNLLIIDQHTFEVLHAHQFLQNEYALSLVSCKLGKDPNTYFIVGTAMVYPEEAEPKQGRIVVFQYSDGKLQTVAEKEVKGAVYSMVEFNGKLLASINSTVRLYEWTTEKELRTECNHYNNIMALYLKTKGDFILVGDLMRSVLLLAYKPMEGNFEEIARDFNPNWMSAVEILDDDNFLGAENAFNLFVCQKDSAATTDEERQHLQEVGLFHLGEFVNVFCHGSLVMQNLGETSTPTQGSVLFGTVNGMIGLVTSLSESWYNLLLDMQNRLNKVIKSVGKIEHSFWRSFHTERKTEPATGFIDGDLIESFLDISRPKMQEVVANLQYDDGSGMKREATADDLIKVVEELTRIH

GSPT1 [2] = target: T1, GSPT1; experiment: quantitative proteomics analysis in ABC1 cells; assay type: cell-based; conditions: 100 nM, 6 hr
Method: Quantitative Proteomics Analysis: ABC1 cells were treated with either DMSO (2 replicates) or compound 10 at 100 nM (2 replicates) for 6 hr. Proteins were extracted with the PreOmics iST-NHS lysis buffer (#P.O.00030). The samples were then processed using the PreOmics kit following their recommended protocol with minor modifications. In brief, the proteins were reduced, alkylated and digested for 2 h at 37° C. The peptides were then labelled with TMT reagent (1:4; peptide:TMT label) (Thermo Fisher Scientific). After quenching, the peptides were purified, and the 16 samples were combined to a 1:1 ratio. […] Eluted TMT peptides were analyzed on an Orbitrap Eclipse mass spectrometer (Thermo Fisher Scientific). […] Precursors were fragmented by CID at a normalized collision energy (NCE) of 35% and analyzed in the ion trap. Following MS2, synchronous precursor selection (SPS) MS3 scans were collected by using high energy collision-induced dissociation (HCD) and fragments were analyzed using the Orbitrap (NCE 55%, AGC target 1×10^5, maximum injection time 120 ms, resolution 60,000). Protein identification and quantification were performed using Proteome Discoverer 2.4.0.305 with the SEQUEST algorithm and Uniprot human database (2021 Jan. 29, 20614 protein sequences). […] Protein relative quantification was performed using an in-house developed java notebook. […]
Target sequence in this assay (P15170 whole entry): as the sequence (P15170 whole entry, looked up) above
Target sequence in this assay (Q96SW2 whole entry): as the sequence (Q96SW2 whole entry, looked up) above
Target sequence in this assay (Q16531 2-1140 partner): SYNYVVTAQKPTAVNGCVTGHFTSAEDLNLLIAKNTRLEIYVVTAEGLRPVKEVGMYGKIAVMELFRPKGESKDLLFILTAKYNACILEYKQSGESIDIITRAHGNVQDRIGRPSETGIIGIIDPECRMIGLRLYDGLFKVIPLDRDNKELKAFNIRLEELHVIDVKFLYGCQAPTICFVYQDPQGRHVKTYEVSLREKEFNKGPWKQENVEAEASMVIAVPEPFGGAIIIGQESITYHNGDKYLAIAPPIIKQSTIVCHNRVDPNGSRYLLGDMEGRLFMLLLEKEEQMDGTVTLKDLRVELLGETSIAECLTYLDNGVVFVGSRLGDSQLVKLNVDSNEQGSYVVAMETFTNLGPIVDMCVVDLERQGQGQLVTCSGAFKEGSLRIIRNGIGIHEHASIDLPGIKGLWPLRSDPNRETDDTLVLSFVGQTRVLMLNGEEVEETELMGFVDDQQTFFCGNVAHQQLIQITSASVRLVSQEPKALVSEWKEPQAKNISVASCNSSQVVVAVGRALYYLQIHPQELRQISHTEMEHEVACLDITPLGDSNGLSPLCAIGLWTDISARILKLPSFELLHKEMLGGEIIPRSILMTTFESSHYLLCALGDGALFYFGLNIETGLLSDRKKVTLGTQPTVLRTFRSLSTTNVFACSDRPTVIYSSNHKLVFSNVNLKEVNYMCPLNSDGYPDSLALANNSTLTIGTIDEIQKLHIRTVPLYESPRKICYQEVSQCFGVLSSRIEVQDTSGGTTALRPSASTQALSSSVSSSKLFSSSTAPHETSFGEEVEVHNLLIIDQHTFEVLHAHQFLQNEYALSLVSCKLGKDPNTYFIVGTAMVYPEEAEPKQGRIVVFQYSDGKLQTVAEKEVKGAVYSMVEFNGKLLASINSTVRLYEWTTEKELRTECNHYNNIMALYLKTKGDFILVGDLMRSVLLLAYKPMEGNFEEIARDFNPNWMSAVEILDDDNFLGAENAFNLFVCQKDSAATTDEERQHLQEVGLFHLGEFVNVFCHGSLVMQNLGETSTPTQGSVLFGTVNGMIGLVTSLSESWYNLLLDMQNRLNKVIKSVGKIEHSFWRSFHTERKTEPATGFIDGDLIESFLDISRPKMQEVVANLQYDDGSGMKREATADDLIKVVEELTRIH

[3] = tested on: human cell line NCI-H1155; experiment: N-Myc-driven mouse xenograft model, NCI-H1155 (FIG. 3A); assay type: in vivo; conditions: for tumor size (tumor volume): study to day 21
IKZF3 = IKZF3 (Homo sapiens (Human), UniProt Q9UKT9); experiment: IKZF3 degradation in cells treated with compound (FIG. 1A); assay type: cell-based; conditions: concentrations up to 30 µM
human cell line NCI-H526 = experiment: N-Myc-driven mouse xenograft model, NCI-H526 (FIG. 3D); assay type: in vivo
[4] = 6 mg/kg PO five days on and nine days off

IKZF3, sequence (Q9UKT9 whole entry, looked up): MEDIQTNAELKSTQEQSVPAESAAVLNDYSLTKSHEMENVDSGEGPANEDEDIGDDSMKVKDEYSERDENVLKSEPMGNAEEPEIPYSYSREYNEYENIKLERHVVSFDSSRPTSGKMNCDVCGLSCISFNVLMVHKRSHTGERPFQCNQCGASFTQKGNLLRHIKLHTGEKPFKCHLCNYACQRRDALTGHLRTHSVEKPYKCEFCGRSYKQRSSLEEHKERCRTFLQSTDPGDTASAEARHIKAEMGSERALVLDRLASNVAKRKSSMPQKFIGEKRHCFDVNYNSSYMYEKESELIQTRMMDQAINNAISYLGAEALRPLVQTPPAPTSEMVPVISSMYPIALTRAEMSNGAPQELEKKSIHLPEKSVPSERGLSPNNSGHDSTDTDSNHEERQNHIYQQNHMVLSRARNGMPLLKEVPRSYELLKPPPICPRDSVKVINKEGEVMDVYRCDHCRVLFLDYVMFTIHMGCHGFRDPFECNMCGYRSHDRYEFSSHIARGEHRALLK
CK1alpha, sequence (P48729 whole entry, looked up): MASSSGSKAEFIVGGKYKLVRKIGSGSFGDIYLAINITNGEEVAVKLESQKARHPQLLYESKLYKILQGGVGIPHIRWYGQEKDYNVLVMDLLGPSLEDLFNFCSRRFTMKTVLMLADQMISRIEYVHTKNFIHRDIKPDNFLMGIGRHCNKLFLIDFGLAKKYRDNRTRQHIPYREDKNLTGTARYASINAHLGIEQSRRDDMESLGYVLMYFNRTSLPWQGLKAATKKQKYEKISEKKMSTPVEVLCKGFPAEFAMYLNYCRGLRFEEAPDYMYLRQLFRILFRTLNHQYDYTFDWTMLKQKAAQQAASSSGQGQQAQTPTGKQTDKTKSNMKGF

degradation of CK1alpha (CK1alpha): no induction of degradation
DC50 (GSPT1 [1]; ABC-1 cells): 22 nM
relative levels of GSPT1 vs concentration (GSPT1 [1]; FIG. 2B): concentration dependent manner
DC50 (GSPT1 [1]; NCI-H1155 cells): 3 nM
extent of GSPT1 degradation (GSPT1 [1]; both cell lines, NCI-H1155 and ABC-1): complete degradation
degradation of IKZF3 (IKZF3): no induction of degradation
Compound: Cc1ccc(NC(=O)OCc2ccc3c(c2)C(=O)N(C2CCC(=O)NC2=O)C3)cc1Cl (stereo not shown) [Compound 10]
protein downregulation by mass spectrometry-based proteomics (FIG. 1B) (GSPT1 [2]): GSPT1 was the most statistically significant downregulated protein
tumor growth (tumor volume) ([3]; 1 mg/kg PO once daily): tumor growth was suppressed for two weeks
tumor size (tumor volume) ([3]; 3 mg/kg PO once daily): tumor size decreased, became undetectable by day eight and remained so until the end of the study at day 21
tumor size (tumor volume) [3, 4]: tumor size decreased, became undetectable by day eight and remained so until the end of the study at day 21
body weight ([3]; oral administration): no body weight loss
effect on tumor growth (tumor volume) ([3]; oral administration): tumor growth inhibition
tumor size (tumor volume) (human cell line NCI-H526; 3 mg/kg PO once daily): tumor size decreased and remained so until the end of the study
tumor size (tumor volume) (human cell line NCI-H526; [4]): tumor size decreased and remained so until the end of the study
body weight (human cell line NCI-H526; oral administration): no body weight loss
effect on tumor growth (tumor volume) (human cell line NCI-H526; oral administration): tumor growth inhibition

From patent US11912682B2, “Isoindolinone compounds” (Monte Rosa Therapeutics, Inc., priority 2021, dated 2024)
